Source: ChEMBL document CHEMBL1137358, “Synthetic inhibitors of cytochrome P-450 2A6: inhibitory activity, difference spectra, mechanism of inhibition, and protein cocrystallization” (J Med Chem, 2006)

What was measured:
CYP2A6 over CYP2B6 = test: Selectivity for CYP2A6 over CYP2B6
Cytochrome P450 2C19 = Cytochrome P450 2C19 (Homo sapiens, UniProt P33261); test: Inhibition of human CYP2C19
Cytochrome P450 2D6 = Cytochrome P450 2D6 (Homo sapiens, UniProt P10635); test: Inhibition of human CYP2D6
Chain of Cytochrome P450 2D6 (P10635 whole entry): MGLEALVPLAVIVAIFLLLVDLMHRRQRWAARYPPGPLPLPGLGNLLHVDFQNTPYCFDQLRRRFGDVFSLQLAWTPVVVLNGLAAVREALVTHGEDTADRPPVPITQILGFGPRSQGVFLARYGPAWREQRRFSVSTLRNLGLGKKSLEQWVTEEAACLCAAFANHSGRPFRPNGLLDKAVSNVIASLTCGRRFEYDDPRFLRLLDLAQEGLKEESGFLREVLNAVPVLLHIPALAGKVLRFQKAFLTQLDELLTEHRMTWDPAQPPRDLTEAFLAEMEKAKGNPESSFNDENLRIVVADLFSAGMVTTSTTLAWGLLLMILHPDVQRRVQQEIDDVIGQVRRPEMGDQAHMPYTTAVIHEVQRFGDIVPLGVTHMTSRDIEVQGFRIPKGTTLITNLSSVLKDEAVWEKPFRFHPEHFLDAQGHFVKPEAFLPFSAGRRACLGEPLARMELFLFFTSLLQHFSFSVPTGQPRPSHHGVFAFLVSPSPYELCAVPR

CYP2A6 over CYP2D6 = test: Selectivity for CYP2A6 over CYP2D6; settings: human
CYP2A6 over CYP2C9 = test: Selectivity for CYP2A6 over CYP2C9; settings: human
Cytochrome P450 3A4 = Cytochrome P450 3A4 (Homo sapiens, UniProt P08684); test: Inhibition of human CYP3A4
Chain of Cytochrome P450 3A4 (P08684 whole entry): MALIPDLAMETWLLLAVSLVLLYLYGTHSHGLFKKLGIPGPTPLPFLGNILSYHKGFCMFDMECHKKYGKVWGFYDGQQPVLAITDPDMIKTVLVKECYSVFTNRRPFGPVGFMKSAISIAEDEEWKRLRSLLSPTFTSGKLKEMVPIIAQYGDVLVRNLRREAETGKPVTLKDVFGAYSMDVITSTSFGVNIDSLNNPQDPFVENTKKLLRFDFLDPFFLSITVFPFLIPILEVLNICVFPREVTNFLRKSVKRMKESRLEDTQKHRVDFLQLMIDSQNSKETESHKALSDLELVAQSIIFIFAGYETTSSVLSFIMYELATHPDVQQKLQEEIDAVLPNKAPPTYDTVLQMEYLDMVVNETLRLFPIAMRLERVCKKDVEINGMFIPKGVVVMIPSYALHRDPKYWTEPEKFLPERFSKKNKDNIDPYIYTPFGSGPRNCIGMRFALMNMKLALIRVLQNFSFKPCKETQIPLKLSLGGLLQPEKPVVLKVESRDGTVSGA

Liver microsomes = test: (§1) Stability in human liver microsome; settings: microsomes
Mus musculus = organism: Mus musculus; test: (§2) Stability in mouse liver microsome; settings: microsomes
CYP2A6 over CYP3A4 = test: Selectivity for CYP2A6 over CYP3A4; settings: human
CYP2A6 over CYP2E1 = test: Selectivity for CYP2A6 over CYP2E1; settings: human
Cytochrome P450 2A6 [1] = biological target: T1, Cytochrome P450 2A6 (Homo sapiens, UniProt P11509); test: Inhibition of human CYP2A6
T1 sequence (P11509 whole entry): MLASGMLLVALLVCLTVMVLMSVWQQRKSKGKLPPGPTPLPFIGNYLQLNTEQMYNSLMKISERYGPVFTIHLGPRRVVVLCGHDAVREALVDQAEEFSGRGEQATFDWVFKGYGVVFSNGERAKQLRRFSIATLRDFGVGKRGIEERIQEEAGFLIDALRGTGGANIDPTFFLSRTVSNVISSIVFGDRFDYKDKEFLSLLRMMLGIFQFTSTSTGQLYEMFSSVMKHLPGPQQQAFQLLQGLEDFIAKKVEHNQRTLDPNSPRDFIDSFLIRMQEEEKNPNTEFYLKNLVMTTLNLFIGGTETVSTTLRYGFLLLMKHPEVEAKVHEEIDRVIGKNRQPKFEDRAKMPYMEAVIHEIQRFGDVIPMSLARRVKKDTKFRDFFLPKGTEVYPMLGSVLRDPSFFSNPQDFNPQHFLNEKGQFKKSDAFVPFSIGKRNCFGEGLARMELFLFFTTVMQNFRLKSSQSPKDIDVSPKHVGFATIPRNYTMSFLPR

Cytochrome P450 2E1 = Cytochrome P450 2E1 (Homo sapiens, UniProt P05181); test: Inhibition of human CYP2E1
Chain of Cytochrome P450 2E1 (P05181 whole entry): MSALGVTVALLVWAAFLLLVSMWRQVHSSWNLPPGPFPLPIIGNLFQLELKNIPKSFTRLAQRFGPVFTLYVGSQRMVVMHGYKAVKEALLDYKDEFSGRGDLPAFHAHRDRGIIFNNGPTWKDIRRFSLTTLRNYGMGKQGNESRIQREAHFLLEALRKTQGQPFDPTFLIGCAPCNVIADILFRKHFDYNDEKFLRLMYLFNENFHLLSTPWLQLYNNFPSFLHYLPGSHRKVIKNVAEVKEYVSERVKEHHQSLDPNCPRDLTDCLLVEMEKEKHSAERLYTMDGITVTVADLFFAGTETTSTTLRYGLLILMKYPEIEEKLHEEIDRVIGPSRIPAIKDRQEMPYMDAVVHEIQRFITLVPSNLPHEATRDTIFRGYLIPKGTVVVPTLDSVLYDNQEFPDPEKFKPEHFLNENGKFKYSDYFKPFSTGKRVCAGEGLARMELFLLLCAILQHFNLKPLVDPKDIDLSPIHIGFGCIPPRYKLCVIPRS

Cytochrome P450 2C9 = Cytochrome P450 2C9 (Homo sapiens, UniProt P11712); test: Inhibition of human CYP2C9
Chain of Cytochrome P450 2C9 (P11712 whole entry): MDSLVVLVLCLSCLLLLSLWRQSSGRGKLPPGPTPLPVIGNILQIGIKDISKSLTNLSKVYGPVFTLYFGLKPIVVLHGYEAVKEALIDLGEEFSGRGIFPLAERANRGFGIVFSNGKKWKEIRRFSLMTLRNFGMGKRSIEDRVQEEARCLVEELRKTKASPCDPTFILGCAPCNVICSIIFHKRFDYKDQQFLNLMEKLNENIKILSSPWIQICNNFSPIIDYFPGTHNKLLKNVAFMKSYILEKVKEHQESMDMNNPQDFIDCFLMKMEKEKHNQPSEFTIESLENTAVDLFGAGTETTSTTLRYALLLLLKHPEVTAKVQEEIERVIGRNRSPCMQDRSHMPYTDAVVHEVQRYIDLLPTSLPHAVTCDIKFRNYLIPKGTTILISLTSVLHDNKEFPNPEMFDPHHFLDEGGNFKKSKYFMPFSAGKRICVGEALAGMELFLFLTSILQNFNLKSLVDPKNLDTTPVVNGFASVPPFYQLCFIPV

Cytochrome P450 2B6 = biological target: T2, Cytochrome P450 2B6 (Homo sapiens, UniProt P20813); test: Inhibition of human CYP2B6
T2 sequence (P20813 whole entry): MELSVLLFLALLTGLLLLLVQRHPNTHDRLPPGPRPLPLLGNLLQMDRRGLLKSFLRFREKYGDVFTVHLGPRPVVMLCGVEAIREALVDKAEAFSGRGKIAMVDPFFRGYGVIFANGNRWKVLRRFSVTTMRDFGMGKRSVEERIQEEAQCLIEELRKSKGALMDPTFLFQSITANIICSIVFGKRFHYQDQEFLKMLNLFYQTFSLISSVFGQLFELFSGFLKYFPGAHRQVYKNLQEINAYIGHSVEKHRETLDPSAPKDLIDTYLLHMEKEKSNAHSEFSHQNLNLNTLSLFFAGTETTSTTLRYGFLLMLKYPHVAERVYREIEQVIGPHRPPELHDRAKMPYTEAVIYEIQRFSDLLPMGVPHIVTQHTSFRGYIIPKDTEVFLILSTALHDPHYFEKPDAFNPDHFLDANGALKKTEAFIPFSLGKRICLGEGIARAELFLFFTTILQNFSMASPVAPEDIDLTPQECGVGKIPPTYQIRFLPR

CYP2A6 over CYP2C19 = test: Selectivity for CYP2A6 over CYP2C19; settings: human
Cytochrome P450 2A6 [2] = biological target: T1, Cytochrome P450 2A6; test: Displacement of coumarin from CYP2A6 at 100 uM; format: ADME
[3] = as §1
[4] = as §2

Chain of Cytochrome P450 2C19 (P33261 whole entry): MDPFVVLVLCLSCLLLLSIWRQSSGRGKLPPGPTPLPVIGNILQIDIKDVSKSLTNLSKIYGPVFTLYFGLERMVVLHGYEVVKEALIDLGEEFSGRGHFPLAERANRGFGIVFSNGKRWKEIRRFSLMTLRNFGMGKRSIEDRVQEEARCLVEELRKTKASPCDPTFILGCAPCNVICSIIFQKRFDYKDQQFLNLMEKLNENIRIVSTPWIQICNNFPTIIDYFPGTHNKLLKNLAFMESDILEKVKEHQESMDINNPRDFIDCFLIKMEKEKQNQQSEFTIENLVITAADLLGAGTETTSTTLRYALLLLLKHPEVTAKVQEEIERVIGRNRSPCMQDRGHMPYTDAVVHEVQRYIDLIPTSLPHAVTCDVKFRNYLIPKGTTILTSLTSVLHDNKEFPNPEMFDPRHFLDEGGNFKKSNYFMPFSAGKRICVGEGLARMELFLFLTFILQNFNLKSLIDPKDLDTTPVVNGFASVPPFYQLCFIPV

Row | Ki (Cytochrome P450 2C19) | Ki (Cytochrome P450 2D6) | Ki (Cytochrome P450 3A4) | Ki (Cytochrome P450 2A6 [1]) | Ki (Cytochrome P450 2E1) | Ki (Cytochrome P450 2C9) | Ki (Cytochrome P450 2B6) | Activity (Cytochrome P450 2A6 [2]) | half-life ([3]; microsomes) | half-life ([4]; microsomes) | half-life ([3]; liver microsomes) | half-life ([4]; liver microsomes) | Structure (SMILES) | selectivity ratio (CYP2A6 over CYP2B6) | selectivity ratio (CYP2A6 over CYP2D6) | selectivity ratio (CYP2A6 over CYP2C9) | Stability (Liver microsomes) | Stability (Mus musculus) | selectivity ratio (CYP2A6 over CYP3A4) | selectivity ratio (CYP2A6 over CYP2E1) | selectivity ratio (CYP2A6 over CYP2C19)
1 | 0.2 µM | 0.7 µM | 3.1 µM | < 0.8 µM | 0.05 µM | 0.4 µM | 1.1 µM | Active | 1.98 h | 1.75 h | – | – | SCc1ccc(-c2cccnc2)o1 | > 1.5 | < 0.9 | – | – | – | > 4.1 | < 0.1 | < 0.3
2 | 0.7 µM | 38.4 µM | 1.1 µM | 13.9 µM | 0.6 µM | 1.3 µM | 5.3 µM | Active | – | – | 1.53 h | 0.4 h | c1cncc(-c2ccc(C3SCCS3)o2)c1 | 0.4 | 2.8 | 0.1 | – | – | 0.1 | 0.04 | 0.1
3 | 53 µM | 14.4 µM | 110 µM | 66.5 µM | > 400 µM | 103 µM | > 400 µM | – | – | – | – | 5.72 h | CN(C)Cc1ccc(-c2cccnc2)s1 | > 3 | 0.2 | 1.5 | Stable | – | 1.6 | > 3 | 0.8
4 | 3.9 µM | 45.4 µM | 1.5 µM | 0.8 µM | 0.2 µM | 2.9 µM | 0.9 µM | Not Active | – | – | 0.5 h | 0.3 h | CC(=O)SCc1ccc(-c2cccnc2)o1 | 1 | 53 | 3.4 | – | – | 1.7 | 0.3 | 4.6

Row | Structure (SMILES) | Ki (Cytochrome P450 2C19) | Ki (Cytochrome P450 2D6) | Ki (Cytochrome P450 3A4) | Ki (Cytochrome P450 2A6 [1]) | Ki (Cytochrome P450 2E1) | Ki (Cytochrome P450 2C9) | Ki (Cytochrome P450 2B6) | Activity (Cytochrome P450 2A6 [2]) | half-life ([3]; microsomes) | half-life ([4]; microsomes) | half-life ([3]; liver microsomes) | half-life ([4]; liver microsomes) | selectivity ratio (CYP2A6 over CYP2B6) | selectivity ratio (CYP2A6 over CYP2D6) | selectivity ratio (CYP2A6 over CYP2C9) | Stability (Liver microsomes) | Stability (Mus musculus) | selectivity ratio (CYP2A6 over CYP3A4) | selectivity ratio (CYP2A6 over CYP2E1) | selectivity ratio (CYP2A6 over CYP2C19)
5 | CN(C)CC#Cc1cccnc1 | > 400 µM | > 400 µM | > 400 µM | 67.5 µM | > 400 µM | > 400 µM | 192 µM | – | – | – | – | – | 2.8 | > 3 | > 3 | Stable | Stable | > 3 | > 3 | > 3
6 | Cn1cnc(-c2cccnc2)c1 | 61 µM | 102 µM | 131 µM | 0.4 µM | 2 µM | 39.7 µM | 73 µM | – | – | – | – | 8.02 h | – | – | – | Stable | – | – | 5 | –
7 | NCCCc1cccnc1 | > 400 µM | > 400 µM | > 400 µM | 6.6 µM | > 400 µM | > 400 µM | > 400 µM | – | – | – | – | – | > 30 | > 30 | > 30 | Stable | Stable | > 400 | > 30 | > 30
